# Data from the supplement of paper PMC10307832.
# Key:
# Experiment in all cases: relative viability (nuclei count vs DMSO), 5 days (fraction); higher = more cells survive
# [1] = compound: CC1=CC=C(C=C1)C(=O)CN2C3=C(CCCC3)SC2=N [Pifithrin_alpha] + CC(=O)Nc1cccc(-n2c(=O)n(C3CC3)c(=O)c3c(Nc4ccc(I)cc4F)n(C)c(=O)c(C)c32)c1 [Trametinib] (partner 0.02 µM)
# Outline: (§1)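 Medians of duplicate plates are given as relative viability. That measure is the nuclei count in treated wells divided by the count in vehicle wells. Counts were taken on 4× images of lung cancer cell lines in 1536-well plates, 5 days after pin-tool dosing the day after seeding with one drug alone or a fixed anchor-drug dose plus five library-drug doses (not always all listed) in √10 steps.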
# [2] = compound: CC1=CC=C(C=C1)C(=O)CN2C3=C(CCCC3)SC2=N [Pifithrin_alpha] + Nc1nc2[nH]cc(CCc3ccc(C(=O)N[C@@H](CCC(=O)O)C(=O)O)cc3)c2c(=O)[nH]1 [Pemetrexed] (partner 0.2 µM)
# Outline: as §1
# Bemcentinib + Alpelisib = compound: Nc1nc(Nc2ccc3c(c2)CC[C@@H](N2CCCC2)CC3)nn1-c1cc2c(nn1)-c1ccccc1CCC2 [Bemcentinib] + Cc1nc(NC(=O)N2CCC[C@H]2C(N)=O)sc1-c1ccnc(C(C)(C)C(F)(F)F)c1 [Alpelisib] (partner 2 µM)
# Outline: as §1
# Bemcentinib + Decitabine = compound: Nc1nc(Nc2ccc3c(c2)CC[C@@H](N2CCCC2)CC3)nn1-c1cc2c(nn1)-c1ccccc1CCC2 [Bemcentinib] + Nc1ncn([C@H]2C[C@H](O)[C@@H](CO)O2)c(=O)n1 [Decitabine] (partner 2 µM)
# Outline: as §1
Cell Line,relative viability ([1]; first compound 1 µM),relative viability ([1]; first compound 3.162 µM),relative viability ([1]; first compound 10 µM),relative viability ([1]; first compound 31.62 µM),relative viability ([1]; first compound 100 µM),relative viability ([2]; first compound 1 µM),relative viability ([2]; first compound 3.162 µM),relative viability ([2]; first compound 10 µM),relative viability ([2]; first compound 31.62 µM),relative viability ([2]; first compound 100 µM),relative viability (Bemcentinib + Alpelisib; first compound 0.04 µM),relative viability (Bemcentinib + Alpelisib; first compound 0.1265 µM),relative viability (Bemcentinib + Alpelisib; first compound 0.4 µM),relative viability (Bemcentinib + Alpelisib; first compound 1.265 µM),relative viability (Bemcentinib + Alpelisib; first compound 4 µM),relative viability (Bemcentinib + Decitabine; first compound 0.04 µM),relative viability (Bemcentinib + Decitabine; first compound 0.1265 µM),relative viability (Bemcentinib + Decitabine; first compound 0.4 µM),relative viability (Bemcentinib + Decitabine; first compound 1.265 µM),relative viability (Bemcentinib + Decitabine; first compound 4 µM)
SK-LU-1,0.561,0.494,0.43,0.42,0.48,1.03,1.03,1.07,0.752,1.14,1.08,1.13,1.1,1.1,1.1,0.533,0.764,0.74,0.615,0.623
NCI-H1755,0.724,0.682,0.706,0.694,0.738,0.417,0.445,0.381,0.342,0.446,0.98,1.03,1.02,1.06,1.04,0.724,0.671,0.726,0.674,0.718
NCI-H1666,0.8,0.737,0.791,0.706,0.494,0.876,0.784,0.767,0.617,0.714,0.869,1.05,0.941,1.02,1.02,0.618,0.872,0.722,0.592,0.632
PC-3 [JPC-3],–,0.648,–,0.614,0.487,–,1.08,–,0.769,1.04,0.986,1.1,0.985,1.1,1.08,0.773,0.897,0.804,0.822,0.804
NCI-H358,0.138,0.124,0.129,0.12,0.121,0.17,0.192,0.158,0.149,0.145,0.97,0.826,1.04,0.826,0.971,0.202,0.209,0.211,0.212,0.263
NCI-H1975,0.251,0.29,0.232,0.275,0.252,0.285,0.277,0.27,0.212,0.228,0.645,0.676,0.715,0.605,0.632,0.336,0.384,0.394,0.374,0.459
LC-2-ad,0.973,0.945,0.912,0.757,0.811,0.307,0.256,0.293,0.263,0.251,0.877,0.969,0.907,0.822,0.852,0.79,0.724,0.824,0.817,0.756
NCI-H1993,0.485,0.418,0.508,0.397,0.4,0.844,0.547,0.669,0.452,0.479,0.74,0.74,0.694,0.712,0.687,0.541,0.49,0.627,0.577,0.68
H3255,0.578,0.831,0.546,0.421,0.442,0.507,0.533,0.537,0.532,0.505,0.63,0.71,0.713,0.61,0.703,–,0.574,0.681,0.648,0.68
NCI-H1355,0.39,0.362,0.298,0.31,0.282,0.977,0.972,0.764,0.686,0.677,0.905,0.915,0.778,0.902,0.965,0.341,0.35,0.376,0.347,0.431
LXF-289,0.696,0.731,0.716,0.587,0.718,0.908,0.985,0.921,0.767,0.943,1.09,1.05,1.02,1.06,1.05,0.431,0.323,0.417,0.398,0.364
NCI-H3122,0.254,0.296,0.25,0.213,0.286,0.224,0.198,0.184,0.166,0.203,0.447,0.825,0.829,0.819,0.82,0.429,0.385,0.456,0.449,0.491
NCI-H2023,0.512,0.386,0.324,0.213,0.214,0.28,0.254,0.215,0.157,0.153,0.678,0.602,0.72,0.528,0.587,0.204,0.264,0.233,0.282,0.224
NCI-H838,0.458,0.425,0.452,0.391,0.391,0.194,0.242,0.272,0.235,0.287,0.961,1.19,1.08,1.01,1.04,0.483,0.484,0.497,0.47,0.517
COR-L 105,0.259,0.424,0.432,0.421,0.454,1.13,1,0.951,0.926,1.03,1.05,0.949,1.03,0.931,0.895,0.593,0.721,0.678,0.67,0.667
RERF-LC-KJ,0.861,0.774,0.693,0.747,0.586,0.437,0.445,0.507,0.452,0.396,0.748,0.785,0.91,0.859,0.919,0.676,0.729,0.784,0.855,0.752
